The values that follow are results of earlier work, collected in US12070444B2, “Modulation of molecular markers using S-equol” (Board of Regents, The University of Texas System, priority 2020, dated 2024).

Series [1] deals with tumor resistance to ICB immunotherapy. Conditions: recent report (Huang, 2020); cited from earlier work.
Series [2] concerns Ki67 expression. Conditions: IMPACT trial; cited from earlier work.
Series [3] relates to TNBC. Conditions: cited from earlier work.

Where two headings read alike, the source gives them in different places.

As for `Oc1ccc([C@@H]2Oc3ccc(O)cc3[C@@H]3CCC[C@@H]32)cc1` [LY500307], in series [1], the “effect on tumor resistance to ICB immunotherapy” value is given as “overcoming tumor resistance to ICB immunotherapy”.
On to `CC(C)(C#N)c1cc(Cn2cncn2)cc(C(C)(C)C#N)c1` [anastrazole], for which, in series [2], the “change in the geometric mean of Ki67 expression after two weeks” value was −76%.
As for `CC/C(=C(\c1ccccc1)c1ccc(OCCN(C)C)cc1)c1ccccc1` [tamoxifen], the “change in the geometric mean of Ki67 expression after two weeks” value in series [2] was −59.5%.
On to atezolizumab, for which the response rate in series [3] (21 evaluable, PD-L1 expressing TNBC tumors (Emens et al. 2015)) was 19%.
On to avelumab, for which the response rate in series [3] (168 TNBC tumors unselected for PD-L1 expression (Dirix et al. 2015)) is 8.6%.
On to pembrolizumab, for which the response rate in series [3] (Phase 1 study, 27 women, heavily pretreated chemotherapy resistant metastatic TNBC expressing PD-L1 (Nanda et al. 2016)) was 18.4%.
